Test results taken from paper PMC3961306, “Comparison of the Cancer Gene Targeting and Biochemical Selectivities of All Targeted Kinase Inhibitors Approved for Clinical Use” (PLoS ONE, 2014).

Assays:
Assay in all cases: Kinase profiling in a biochemical assay panel (mobility shift assays and ELISA), %-inhibition at 1 μM; selectivity entropy
[1] = target: panel of more than 300 wild-type and mutant kinases (313 kinase panel) (Homo sapiens, UniProt P27361)
[2] = target: panel of more than 300 wild-type and mutant kinases (313 kinase panel) (Homo sapiens, UniProt P31749)
Chain of panel of more than 300 wild-type and mutant kinases (313 kinase panel) (Homo sapiens, UniProt P31749) (P31749 whole entry, change not shown): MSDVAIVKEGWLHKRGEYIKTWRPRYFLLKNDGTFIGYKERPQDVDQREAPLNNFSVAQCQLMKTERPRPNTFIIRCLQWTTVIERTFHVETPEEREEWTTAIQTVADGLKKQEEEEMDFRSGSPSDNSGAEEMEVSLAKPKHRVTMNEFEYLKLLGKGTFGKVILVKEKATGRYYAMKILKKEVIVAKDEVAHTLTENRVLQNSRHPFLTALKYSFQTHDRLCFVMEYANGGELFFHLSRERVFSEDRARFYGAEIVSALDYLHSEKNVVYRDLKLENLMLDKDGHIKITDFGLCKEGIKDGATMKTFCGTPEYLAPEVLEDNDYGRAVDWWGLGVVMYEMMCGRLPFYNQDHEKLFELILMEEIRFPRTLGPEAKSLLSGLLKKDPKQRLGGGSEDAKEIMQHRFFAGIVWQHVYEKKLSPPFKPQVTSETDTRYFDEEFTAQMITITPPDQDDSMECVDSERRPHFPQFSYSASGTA

[3] = target: T1, panel of more than 300 wild-type and mutant kinases (313 kinase panel) (Homo sapiens, UniProt P41743)
T1 sequence (P41743 1-596): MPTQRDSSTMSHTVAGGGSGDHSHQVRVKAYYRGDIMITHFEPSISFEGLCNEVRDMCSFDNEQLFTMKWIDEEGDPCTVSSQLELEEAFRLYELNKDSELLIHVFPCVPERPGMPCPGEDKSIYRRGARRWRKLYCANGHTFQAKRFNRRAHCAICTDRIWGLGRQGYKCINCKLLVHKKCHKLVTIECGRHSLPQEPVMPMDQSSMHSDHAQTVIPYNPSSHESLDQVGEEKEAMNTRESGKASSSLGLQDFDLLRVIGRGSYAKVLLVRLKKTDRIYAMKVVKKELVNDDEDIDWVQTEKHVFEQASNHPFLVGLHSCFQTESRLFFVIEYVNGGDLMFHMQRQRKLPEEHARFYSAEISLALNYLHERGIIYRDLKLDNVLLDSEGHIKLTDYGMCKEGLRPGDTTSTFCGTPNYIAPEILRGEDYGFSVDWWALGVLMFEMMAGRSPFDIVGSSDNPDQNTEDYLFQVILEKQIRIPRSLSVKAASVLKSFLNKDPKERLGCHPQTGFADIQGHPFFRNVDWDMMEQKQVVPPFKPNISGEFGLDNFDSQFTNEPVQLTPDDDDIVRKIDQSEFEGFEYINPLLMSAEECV

[4] = target: panel of more than 300 wild-type and mutant kinases (313 kinase panel) (Homo sapiens, UniProt Q9H4B4)
Chain of panel of more than 300 wild-type and mutant kinases (313 kinase panel) (Homo sapiens, UniProt Q9H4B4) (Q9H4B4 whole entry, change not shown): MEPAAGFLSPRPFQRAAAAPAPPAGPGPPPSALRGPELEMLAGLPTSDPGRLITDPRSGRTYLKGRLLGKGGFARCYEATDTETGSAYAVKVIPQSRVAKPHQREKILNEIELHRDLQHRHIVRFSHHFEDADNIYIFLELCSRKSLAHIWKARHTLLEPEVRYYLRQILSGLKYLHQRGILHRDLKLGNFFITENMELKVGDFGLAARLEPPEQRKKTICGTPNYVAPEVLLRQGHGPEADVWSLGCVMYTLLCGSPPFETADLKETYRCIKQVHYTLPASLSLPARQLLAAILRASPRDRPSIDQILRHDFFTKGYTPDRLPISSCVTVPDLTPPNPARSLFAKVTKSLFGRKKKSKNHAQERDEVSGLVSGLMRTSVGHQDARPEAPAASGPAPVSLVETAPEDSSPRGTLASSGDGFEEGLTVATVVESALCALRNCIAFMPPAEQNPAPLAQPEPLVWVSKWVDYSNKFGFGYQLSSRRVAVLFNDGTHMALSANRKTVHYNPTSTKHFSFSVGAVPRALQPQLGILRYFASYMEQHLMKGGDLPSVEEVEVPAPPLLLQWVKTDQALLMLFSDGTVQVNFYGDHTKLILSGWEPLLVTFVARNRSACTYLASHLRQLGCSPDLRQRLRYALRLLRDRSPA

[5] = target: T2, panel of more than 300 wild-type and mutant kinases (313 kinase panel) (Homo sapiens, UniProt Q9UL54)
T2 sequence (Q9UL54 1-1235): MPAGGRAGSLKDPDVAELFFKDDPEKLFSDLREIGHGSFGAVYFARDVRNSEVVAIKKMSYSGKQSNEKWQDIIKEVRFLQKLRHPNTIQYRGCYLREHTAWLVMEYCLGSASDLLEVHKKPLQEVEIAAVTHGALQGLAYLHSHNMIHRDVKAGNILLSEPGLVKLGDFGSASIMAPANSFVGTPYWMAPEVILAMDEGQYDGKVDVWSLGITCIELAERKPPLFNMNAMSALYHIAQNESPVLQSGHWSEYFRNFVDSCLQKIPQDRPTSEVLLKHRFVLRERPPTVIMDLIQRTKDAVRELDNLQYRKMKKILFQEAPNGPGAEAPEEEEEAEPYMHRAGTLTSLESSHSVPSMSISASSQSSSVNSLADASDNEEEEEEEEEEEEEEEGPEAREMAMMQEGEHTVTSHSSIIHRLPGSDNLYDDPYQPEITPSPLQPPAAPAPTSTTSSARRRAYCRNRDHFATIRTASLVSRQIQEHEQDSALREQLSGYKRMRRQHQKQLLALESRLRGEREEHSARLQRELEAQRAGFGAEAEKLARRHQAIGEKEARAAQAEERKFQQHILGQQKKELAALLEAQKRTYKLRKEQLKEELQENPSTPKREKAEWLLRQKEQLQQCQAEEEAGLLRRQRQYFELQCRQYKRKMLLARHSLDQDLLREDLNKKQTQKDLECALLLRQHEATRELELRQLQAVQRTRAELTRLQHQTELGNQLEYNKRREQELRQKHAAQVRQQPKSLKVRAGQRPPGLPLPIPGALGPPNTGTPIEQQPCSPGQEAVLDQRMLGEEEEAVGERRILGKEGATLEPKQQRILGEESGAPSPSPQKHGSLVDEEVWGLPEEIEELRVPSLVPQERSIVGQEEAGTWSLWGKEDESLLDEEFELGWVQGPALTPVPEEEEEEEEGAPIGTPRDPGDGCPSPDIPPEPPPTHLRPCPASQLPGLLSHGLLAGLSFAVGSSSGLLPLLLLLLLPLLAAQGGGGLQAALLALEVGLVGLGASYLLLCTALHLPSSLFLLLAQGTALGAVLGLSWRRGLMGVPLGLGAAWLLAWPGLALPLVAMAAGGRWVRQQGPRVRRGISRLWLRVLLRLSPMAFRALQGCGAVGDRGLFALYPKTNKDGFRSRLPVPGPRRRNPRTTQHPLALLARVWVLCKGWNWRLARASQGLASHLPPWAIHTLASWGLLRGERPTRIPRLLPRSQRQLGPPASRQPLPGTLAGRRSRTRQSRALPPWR

[6] = target: T3, panel of more than 300 wild-type and mutant kinases (313 kinase panel) (Homo sapiens, UniProt Q8NE63)
T3 sequence (Q8NE63 1-616): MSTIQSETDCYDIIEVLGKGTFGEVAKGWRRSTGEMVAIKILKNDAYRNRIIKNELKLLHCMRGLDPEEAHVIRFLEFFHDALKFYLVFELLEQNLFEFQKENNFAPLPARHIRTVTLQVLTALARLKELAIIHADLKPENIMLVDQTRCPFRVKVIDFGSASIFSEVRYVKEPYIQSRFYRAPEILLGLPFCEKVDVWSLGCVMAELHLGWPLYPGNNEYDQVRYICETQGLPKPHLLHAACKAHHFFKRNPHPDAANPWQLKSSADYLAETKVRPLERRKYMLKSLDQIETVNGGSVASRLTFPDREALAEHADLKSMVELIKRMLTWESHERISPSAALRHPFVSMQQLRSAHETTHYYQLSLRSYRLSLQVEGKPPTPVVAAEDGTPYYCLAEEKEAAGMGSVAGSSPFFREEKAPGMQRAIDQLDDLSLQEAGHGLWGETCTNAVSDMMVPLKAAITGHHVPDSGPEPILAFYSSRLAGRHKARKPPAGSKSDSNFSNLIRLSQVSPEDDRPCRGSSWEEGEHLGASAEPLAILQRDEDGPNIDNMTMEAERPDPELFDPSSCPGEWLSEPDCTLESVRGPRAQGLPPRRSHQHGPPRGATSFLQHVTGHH

Chain of panel of more than 300 wild-type and mutant kinases (313 kinase panel) (Homo sapiens, UniProt P27361) (P27361 whole entry, change not shown): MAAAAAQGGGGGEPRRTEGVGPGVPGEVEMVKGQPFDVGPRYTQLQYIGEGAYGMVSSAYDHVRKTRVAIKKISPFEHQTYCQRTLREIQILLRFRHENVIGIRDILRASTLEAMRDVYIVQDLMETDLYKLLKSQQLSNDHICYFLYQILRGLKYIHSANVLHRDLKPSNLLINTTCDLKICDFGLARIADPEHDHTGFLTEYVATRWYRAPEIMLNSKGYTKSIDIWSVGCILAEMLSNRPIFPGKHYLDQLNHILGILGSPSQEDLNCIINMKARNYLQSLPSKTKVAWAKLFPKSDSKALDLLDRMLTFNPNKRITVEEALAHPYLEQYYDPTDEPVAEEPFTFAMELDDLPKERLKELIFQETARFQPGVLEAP

| SMILES | %-inhibition of Erk1 ([1]; 1 µM) | %-inhibition, AKT1 ([2]; 1 µM) | %-inhibition of PKCι ([3]; kinase PKCι, 1 μM) | %-inhibition of PLK3 ([4]; kinase PLK3, 1 μM) | %-inhibition of TAOK2 ([5]; kinase TAOK2, 1 μM) | %-inhibition of Erk1 ([1]; kinase Erk1, compound at 1 μM) | %-inhibition, AKT1 ([2]; kinase AKT1, 1 μM compound) | %-inhibition of HIPK4 ([6]; kinase HIPK4, compound at 1 μM) | %-inhibition of PKCι ([3]; 1 µM) | %-inhibition of HIPK4 ([6]; 1 µM) | %-inhibition of PLK3 ([4]; 1 µM) | %-inhibition of TAOK2 ([5]; 1 µM) |
| --- | --- | --- | --- | --- | --- | --- | --- | --- | --- | --- | --- | --- |
| COc1cc(Nc2c(C#N)cnc3cc(OCCCN4CCN(C)CC4)c(OC)cc23)c(Cl)cc1Cl [bosutinib] | 1.12% | -5.47% | 5% | 0.877% | 10% | – | – | – | – | – | – | – |
| COc1cc2nccc(Oc3ccc(NC(=O)C4(C(=O)Nc5ccc(F)cc5)CC4)cc3)c2cc1OC [cabozantinib] | – | – | 15% | -1.07% | 6% | -1.33% | -4.52% | – | – | – | – | – |
| C[C@@H](Oc1cc(-c2cnn(C3CCNCC3)c2)cnc1N)c1c(Cl)ccc(F)c1Cl [crizotinib] | – | – | -5% | -2.24% | 33% | -2% | -7% | 31% | – | – | – | – |
| CC(C)(C)c1nc(-c2cccc(NS(=O)(=O)c3c(F)cccc3F)c2F)c(-c2ccnc(N)n2)s1 [dabrafenib] | – | – | 14% | – | 34% | -1.62% | – | 92% | – | – | – | – |
| Cc1nc(Nc2ncc(C(=O)Nc3c(C)cccc3Cl)s2)cc(N2CCN(CCO)CC2)n1 [dasatinib] | – | – | – | 10% | – | – | – | – | – | – | – | – |
| C#Cc1cccc(Nc2ncnc3cc(OCCOC)c(OCCOC)cc23)c1 [erlotinib] | 0.357% | 12% | – | – | – | – | – | – | 9% | 37% | 6% | -8% |
| CO[C@H]1C[C@@H]2CC[C@@H](C)[C@@](O)(O2)C(=O)C(=O)N2CCCC[C@H]2C(=O)O[C@H]([C@H](C)C[C@@H]2CC[C@@H](OCCO)[C@H](OC)C2)CC(=O)[C@H](C)/C=C(\C)[C@@H](O)[C@@H](OC)C(=O)[C@H](C)C[C@H](C)/C=C/C=C/C=C/1C [everolimus] | – | – | 3.78% | -1.66% | -0.8% | -0.906% | -7% | -6.34% | – | – | – | – |
| O=S(=O)(c1cccc2cnccc12)N1CCCNCC1 [fasudil] | – | – | 14% | -4.66% | -2.59% | -3% | 4.44% | -0.779% | – | – | – | – |
| CS(=O)(=O)CCNCc1ccc(-c2ccc3ncnc(Nc4ccc(OCc5cccc(F)c5)c(Cl)c4)c3c2)o1 [lapatinib] | – | – | -0.659% | 6% | -5.44% | -4% | 2.63% | 9% | – | – | – | – |
| Cc1cn(-c2cc(NC(=O)c3ccc(C)c(Nc4nccc(-c5cccnc5)n4)c3)cc(C(F)(F)F)c2)cn1 [nilotinib] | – | – | -8% | 26% | 7.47% | 3.21% | 11% | 37% | – | – | – | – |
| Cc1ccc(Nc2nccc(N(C)c3ccc4c(C)n(C)nc4c3)n2)cc1S(N)(=O)=O [pazopanib] | – | – | 0.255% | 9% | 53% | -3.79% | -2% | 22% | – | – | – | – |
| Cc1ccc(C(=O)Nc2ccc(CN3CCN(C)CC3)c(C(F)(F)F)c2)cc1C#Cc1cnc2cccnn12 [ponatinib] | – | – | 18% | -11% | 74% | – | – | 96% | – | – | – | – |
| CNC(=O)c1cc(Oc2ccc(NC(=O)Nc3ccc(Cl)c(C(F)(F)F)c3)c(F)c2)ccn1 [regorafenib] | – | – | -8% | 2.24% | 75% | -2% | -5.68% | 100% | – | – | – | – |
| CO[C@H]1C[C@@H]2CC[C@@H](C)[C@@](O)(O2)C(=O)C(=O)N2CCCC[C@H]2C(=O)O[C@H]([C@H](C)C[C@@H]2CC[C@@H](OC(=O)C(C)(CO)CO)[C@H](OC)C2)CC(=O)[C@H](C)/C=C(\C)[C@@H](O)[C@@H](OC)C(=O)[C@H](C)C[C@H](C)/C=C/C=C/C=C/1C [temsirolimus] | – | – | 13% | -4.39% | – | 0.373% | -4% | 2.19% | – | – | – | – |
